Measurements published in BigSolDB 2.1.

CC(CCC(=O)O)(c1ccc(O)cc1)c1ccc(O)cc1
Conditions | solubility (mole fraction)
in acetone, 288.15 K | 0.125
in acetone, 291.15 K | 0.127
in acetone, 294.15 K | 0.13
in acetone, 297.15 K | 0.134
in acetone, 300.15 K | 0.137
in acetone, 303.15 K | 0.14
in acetone, 306.15 K | 0.143
in acetone, 309.15 K | 0.146
in acetone, 312.15 K | 0.15
in acetone, 315.15 K | 0.153
in acetone, 318.15 K | 0.157
in acetonitrile, 288.15 K | 0.00804
in acetonitrile, 291.15 K | 0.00871
in acetonitrile, 294.15 K | 0.00973
in acetonitrile, 297.15 K | 0.0106
in acetonitrile, 300.15 K | 0.0116
in acetonitrile, 303.15 K | 0.013
in acetonitrile, 306.15 K | 0.0144
in acetonitrile, 309.15 K | 0.0162
in acetonitrile, 312.15 K | 0.0181
in acetonitrile, 315.15 K | 0.0208
in acetonitrile, 318.15 K | 0.0238
in ethanol, 288.15 K | 0.0989
in ethanol, 291.15 K | 0.103
in ethanol, 294.15 K | 0.107
in ethanol, 297.15 K | 0.11
in ethanol, 300.15 K | 0.114
in ethanol, 303.15 K | 0.118
in ethanol, 306.15 K | 0.123
in ethanol, 309.15 K | 0.129
in ethanol, 312.15 K | 0.136
in ethanol, 315.15 K | 0.142
in ethanol, 318.15 K | 0.148
in ethyl acetate, 288.15 K | 0.0498
in ethyl acetate, 291.15 K | 0.0509
in ethyl acetate, 294.15 K | 0.052
in ethyl acetate, 297.15 K | 0.0533
in ethyl acetate, 300.15 K | 0.0553
in ethyl acetate, 303.15 K | 0.0576
in ethyl acetate, 306.15 K | 0.0604
in ethyl acetate, 309.15 K | 0.0637
in ethyl acetate, 312.15 K | 0.0667
in ethyl acetate, 315.15 K | 0.0696
in ethyl acetate, 318.15 K | 0.0727
in ethyl formate, 288.15 K | 0.0113
in ethyl formate, 291.15 K | 0.0116
in ethyl formate, 294.15 K | 0.012
in ethyl formate, 297.15 K | 0.0127
in ethyl formate, 300.15 K | 0.0136
in ethyl formate, 303.15 K | 0.0146
in ethyl formate, 306.15 K | 0.0155
in ethyl formate, 309.15 K | 0.0166
in ethyl formate, 312.15 K | 0.0183
in ethyl formate, 315.15 K | 0.0202
in ethyl formate, 318.15 K | 0.0221
in isopropanol, 288.15 K | 0.063
in isopropanol, 291.15 K | 0.0631
in isopropanol, 294.15 K | 0.0634
in isopropanol, 297.15 K | 0.0637
in isopropanol, 300.15 K | 0.0651
in isopropanol, 303.15 K | 0.0665
in isopropanol, 306.15 K | 0.0687
in isopropanol, 309.15 K | 0.0718
in isopropanol, 312.15 K | 0.077
in isopropanol, 315.15 K | 0.0829
in isopropanol, 318.15 K | 0.0914
in methanol, 288.15 K | 0.096
in methanol, 291.15 K | 0.0983
in methanol, 294.15 K | 0.101
in methanol, 297.15 K | 0.104
in methanol, 300.15 K | 0.106
in methanol, 303.15 K | 0.11
in methanol, 306.15 K | 0.114
in methanol, 309.15 K | 0.119
in methanol, 312.15 K | 0.123
in methanol, 315.15 K | 0.127
in methanol, 318.15 K | 0.131
in methyl acetate, 288.15 K | 0.0453
in methyl acetate, 291.15 K | 0.0477
in methyl acetate, 294.15 K | 0.0497
in methyl acetate, 297.15 K | 0.0526
in methyl acetate, 300.15 K | 0.0559
in methyl acetate, 303.15 K | 0.0594
in methyl acetate, 306.15 K | 0.063
in methyl acetate, 309.15 K | 0.0668
in methyl acetate, 312.15 K | 0.0713
in methyl acetate, 315.15 K | 0.0775
in methyl acetate, 318.15 K | 0.085
in n-butanol, 288.15 K | 0.0712
in n-butanol, 291.15 K | 0.0763
in n-butanol, 294.15 K | 0.0814
in n-butanol, 297.15 K | 0.0867
in n-butanol, 300.15 K | 0.0919
in n-butanol, 303.15 K | 0.0971
in n-butanol, 306.15 K | 0.102
in n-butanol, 309.15 K | 0.107
in n-butanol, 312.15 K | 0.112
in n-butanol, 315.15 K | 0.116
in n-butanol, 318.15 K | 0.12
in n-butyl acetate, 288.15 K | 0.0117
in n-butyl acetate, 291.15 K | 0.0143
in n-butyl acetate, 294.15 K | 0.0169
in n-butyl acetate, 297.15 K | 0.0199
in n-butyl acetate, 300.15 K | 0.0227
in n-butyl acetate, 303.15 K | 0.0258
in n-butyl acetate, 306.15 K | 0.029
in n-butyl acetate, 309.15 K | 0.0325
in n-butyl acetate, 312.15 K | 0.0356
in n-butyl acetate, 315.15 K | 0.039
in n-butyl acetate, 318.15 K | 0.0428
in n-propanol, 288.15 K | 0.0352
in n-propanol, 291.15 K | 0.0384
in n-propanol, 294.15 K | 0.0416
in n-propanol, 297.15 K | 0.046
in n-propanol, 300.15 K | 0.0502
in n-propanol, 303.15 K | 0.0541
in n-propanol, 306.15 K | 0.0588
in n-propanol, 309.15 K | 0.0631
in n-propanol, 312.15 K | 0.0671
in n-propanol, 315.15 K | 0.0732
in n-propanol, 318.15 K | 0.0803
in n-propyl acetate, 288.15 K | 0.0291
in n-propyl acetate, 291.15 K | 0.0298
in n-propyl acetate, 294.15 K | 0.0309
in n-propyl acetate, 297.15 K | 0.032
in n-propyl acetate, 300.15 K | 0.0336
in n-propyl acetate, 303.15 K | 0.0358
in n-propyl acetate, 306.15 K | 0.0379
in n-propyl acetate, 309.15 K | 0.0403
in n-propyl acetate, 312.15 K | 0.0433
in n-propyl acetate, 315.15 K | 0.0472
in n-propyl acetate, 318.15 K | 0.0507
in sec-butanol, 288.15 K | 0.0823
in sec-butanol, 291.15 K | 0.0876
in sec-butanol, 294.15 K | 0.0926
in sec-butanol, 297.15 K | 0.0978
in sec-butanol, 300.15 K | 0.103
in sec-butanol, 303.15 K | 0.11
in sec-butanol, 306.15 K | 0.117
in sec-butanol, 309.15 K | 0.124
in sec-butanol, 312.15 K | 0.129
in sec-butanol, 315.15 K | 0.135
in sec-butanol, 318.15 K | 0.14
